Data published in ChEMBL document CHEMBL3217507, “3,3-Dimethyl-1H-pyrrolo[3,2-g]quinolin-2(3H)-one derivatives as novel Raf kinase inhibitors” (Medchemcomm, 2013).

Key:
[1] = biological target: RAF proto-oncogene serine/threonine-protein kinase (Homo sapiens) (UniProt P04049); assay: Inhibition of c-RAF (unknown origin) using [33P]ATP by […] assay
[2] = Cytotoxicity against human KCC-853 cells after 72 hrs by MTT assay; format: functional, cell-based; conditions: KCC-853, 72 h
[3] = test system: HepG2; assay: Cytotoxicity against human HepG2 cells after 72 hrs by MTT assay; format: functional, cell-based; conditions: HepG2, 72 h
[4] = test system: A549; assay: Cytotoxicity against human A549 cells after 72 hrs by MTT assay; format: functional, cell-based; conditions: A549, 72 h
[5] = biological target: Fibroblast growth factor receptor 1 (Homo sapiens) (UniProt P11362); assay: Inhibition of FGFR1 (unknown origin) at 10 uM
[6] = organism: Homo sapiens; assay: Inhibition of PKA (unknown origin) at 10 uM
[7] = biological target: Receptor-type tyrosine-protein kinase FLT3 (Homo sapiens) (UniProt P36888); assay: Inhibition of FLT3 (unknown origin) at 10 uM
Chain of Receptor-type tyrosine-protein kinase FLT3 (Homo sapiens) (P36888 whole entry): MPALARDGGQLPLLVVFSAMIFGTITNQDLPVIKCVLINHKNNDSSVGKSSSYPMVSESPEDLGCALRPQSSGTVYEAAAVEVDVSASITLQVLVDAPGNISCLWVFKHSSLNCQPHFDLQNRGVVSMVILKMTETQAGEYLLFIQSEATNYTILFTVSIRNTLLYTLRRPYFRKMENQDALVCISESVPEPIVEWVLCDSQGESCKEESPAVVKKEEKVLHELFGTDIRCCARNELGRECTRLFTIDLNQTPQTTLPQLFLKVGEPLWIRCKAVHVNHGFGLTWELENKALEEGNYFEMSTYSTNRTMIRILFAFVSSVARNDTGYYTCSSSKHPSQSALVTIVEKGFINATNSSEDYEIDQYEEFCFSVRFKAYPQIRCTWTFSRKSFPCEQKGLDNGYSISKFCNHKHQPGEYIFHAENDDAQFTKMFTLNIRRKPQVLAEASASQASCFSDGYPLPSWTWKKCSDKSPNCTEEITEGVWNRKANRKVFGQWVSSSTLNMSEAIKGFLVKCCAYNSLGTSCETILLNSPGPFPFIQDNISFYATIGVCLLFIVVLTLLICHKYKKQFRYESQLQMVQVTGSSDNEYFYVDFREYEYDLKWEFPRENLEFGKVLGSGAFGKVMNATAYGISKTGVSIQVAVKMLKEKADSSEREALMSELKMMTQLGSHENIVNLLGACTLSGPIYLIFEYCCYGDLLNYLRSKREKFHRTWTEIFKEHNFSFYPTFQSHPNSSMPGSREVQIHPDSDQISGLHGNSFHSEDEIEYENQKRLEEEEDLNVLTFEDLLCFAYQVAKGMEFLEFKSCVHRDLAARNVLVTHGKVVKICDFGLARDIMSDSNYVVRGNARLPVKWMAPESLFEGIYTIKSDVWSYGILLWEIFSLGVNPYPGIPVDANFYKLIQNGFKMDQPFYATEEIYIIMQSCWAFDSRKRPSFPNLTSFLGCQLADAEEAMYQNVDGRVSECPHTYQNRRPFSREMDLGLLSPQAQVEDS

[8] = biological target: Tyrosine-protein kinase JAK2 (Homo sapiens) (UniProt O60674); assay: Inhibition of JAK2 (unknown origin) at 10 uM
[9] = biological target: Macrophage colony-stimulating factor 1 receptor (Homo sapiens) (UniProt P07333); assay: Inhibition of FMS (unknown origin) at 10 uM
[10] = biological target: Mast/stem cell growth factor receptor Kit (Homo sapiens) (UniProt P10721); assay: Inhibition of c-Kit (unknown origin) at 10 uM
[11] = biological target: Hepatocyte growth factor receptor (Homo sapiens) (UniProt P08581); assay: Inhibition of c-MET (unknown origin) at 10 uM
[12] = biological target: Tyrosine-protein kinase SYK (Homo sapiens) (UniProt P43405); assay: Inhibition of SYK (unknown origin) at 10 uM
[13] = biological target: Cyclin-dependent kinase 2 (Homo sapiens) (UniProt P24941); assay: Inhibition of CDK2 (unknown origin) at 10 uM
[14] = biological target: Inhibitor of nuclear factor kappa-B kinase subunit beta (Homo sapiens) (UniProt O14920); assay: Inhibition of IKKbeta (unknown origin) at 10 uM
[15] = biological target: RAC-alpha serine/threonine-protein kinase (Homo sapiens) (UniProt P31749); assay: Inhibition of AKT1 (unknown origin) at 10 uM
[16] = biological target: Platelet-derived growth factor receptor alpha (Homo sapiens) (UniProt P16234); assay: Inhibition of PDGFR-alpha (unknown origin) at 10 uM
[17] = biological target: Vascular endothelial growth factor receptor 2 (Homo sapiens) (UniProt P35968); assay: Inhibition of KDR (unknown origin) at 10 uM
Chain of Vascular endothelial growth factor receptor 2 (Homo sapiens) (P35968 whole entry): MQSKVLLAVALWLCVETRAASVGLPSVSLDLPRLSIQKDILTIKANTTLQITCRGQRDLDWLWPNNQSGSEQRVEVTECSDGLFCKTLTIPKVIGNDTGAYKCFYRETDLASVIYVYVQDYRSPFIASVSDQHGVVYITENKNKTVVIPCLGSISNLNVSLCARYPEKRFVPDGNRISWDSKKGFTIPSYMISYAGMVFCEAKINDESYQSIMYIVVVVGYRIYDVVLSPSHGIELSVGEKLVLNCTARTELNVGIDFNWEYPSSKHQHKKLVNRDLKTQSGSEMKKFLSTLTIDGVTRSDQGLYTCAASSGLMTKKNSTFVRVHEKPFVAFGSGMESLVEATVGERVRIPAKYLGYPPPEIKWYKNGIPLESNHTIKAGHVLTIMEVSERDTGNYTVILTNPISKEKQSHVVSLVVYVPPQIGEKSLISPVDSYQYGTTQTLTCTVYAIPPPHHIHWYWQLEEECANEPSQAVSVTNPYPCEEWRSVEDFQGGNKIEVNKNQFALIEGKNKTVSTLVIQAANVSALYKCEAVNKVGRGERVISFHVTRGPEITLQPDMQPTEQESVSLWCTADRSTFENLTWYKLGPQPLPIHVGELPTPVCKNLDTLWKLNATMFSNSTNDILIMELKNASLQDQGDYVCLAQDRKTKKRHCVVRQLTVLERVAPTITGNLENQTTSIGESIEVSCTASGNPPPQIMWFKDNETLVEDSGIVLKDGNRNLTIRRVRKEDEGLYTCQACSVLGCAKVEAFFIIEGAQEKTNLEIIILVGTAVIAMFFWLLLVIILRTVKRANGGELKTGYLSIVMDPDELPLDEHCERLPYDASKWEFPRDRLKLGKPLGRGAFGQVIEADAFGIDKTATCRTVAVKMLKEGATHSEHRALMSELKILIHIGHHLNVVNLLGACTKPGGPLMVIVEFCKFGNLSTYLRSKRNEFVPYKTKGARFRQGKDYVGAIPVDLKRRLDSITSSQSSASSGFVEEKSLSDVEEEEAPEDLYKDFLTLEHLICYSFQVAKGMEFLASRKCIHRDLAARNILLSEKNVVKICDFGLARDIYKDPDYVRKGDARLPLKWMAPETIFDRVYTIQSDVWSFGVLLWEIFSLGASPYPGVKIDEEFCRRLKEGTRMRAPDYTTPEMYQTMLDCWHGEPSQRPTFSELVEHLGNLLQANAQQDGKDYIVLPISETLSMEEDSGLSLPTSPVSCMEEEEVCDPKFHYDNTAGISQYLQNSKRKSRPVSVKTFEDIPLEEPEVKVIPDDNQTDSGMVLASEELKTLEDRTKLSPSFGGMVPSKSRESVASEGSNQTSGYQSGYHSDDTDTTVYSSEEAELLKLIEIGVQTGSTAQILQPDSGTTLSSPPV

[18] = biological target: Tyrosine-protein kinase ABL1 (Homo sapiens) (UniProt P00519); assay: Inhibition of ABL1 (unknown origin) at 10 uM
[19] = biological target: Tyrosine-protein kinase Fyn (Homo sapiens) (UniProt P06241); assay: Inhibition of FYN (unknown origin) at 10 uM
[20] = biological target: Angiopoietin-1 receptor (Homo sapiens) (UniProt Q02763); assay: Inhibition of TIE2 (unknown origin) at 10 uM
Chain of Angiopoietin-1 receptor (Homo sapiens) (Q02763 whole entry): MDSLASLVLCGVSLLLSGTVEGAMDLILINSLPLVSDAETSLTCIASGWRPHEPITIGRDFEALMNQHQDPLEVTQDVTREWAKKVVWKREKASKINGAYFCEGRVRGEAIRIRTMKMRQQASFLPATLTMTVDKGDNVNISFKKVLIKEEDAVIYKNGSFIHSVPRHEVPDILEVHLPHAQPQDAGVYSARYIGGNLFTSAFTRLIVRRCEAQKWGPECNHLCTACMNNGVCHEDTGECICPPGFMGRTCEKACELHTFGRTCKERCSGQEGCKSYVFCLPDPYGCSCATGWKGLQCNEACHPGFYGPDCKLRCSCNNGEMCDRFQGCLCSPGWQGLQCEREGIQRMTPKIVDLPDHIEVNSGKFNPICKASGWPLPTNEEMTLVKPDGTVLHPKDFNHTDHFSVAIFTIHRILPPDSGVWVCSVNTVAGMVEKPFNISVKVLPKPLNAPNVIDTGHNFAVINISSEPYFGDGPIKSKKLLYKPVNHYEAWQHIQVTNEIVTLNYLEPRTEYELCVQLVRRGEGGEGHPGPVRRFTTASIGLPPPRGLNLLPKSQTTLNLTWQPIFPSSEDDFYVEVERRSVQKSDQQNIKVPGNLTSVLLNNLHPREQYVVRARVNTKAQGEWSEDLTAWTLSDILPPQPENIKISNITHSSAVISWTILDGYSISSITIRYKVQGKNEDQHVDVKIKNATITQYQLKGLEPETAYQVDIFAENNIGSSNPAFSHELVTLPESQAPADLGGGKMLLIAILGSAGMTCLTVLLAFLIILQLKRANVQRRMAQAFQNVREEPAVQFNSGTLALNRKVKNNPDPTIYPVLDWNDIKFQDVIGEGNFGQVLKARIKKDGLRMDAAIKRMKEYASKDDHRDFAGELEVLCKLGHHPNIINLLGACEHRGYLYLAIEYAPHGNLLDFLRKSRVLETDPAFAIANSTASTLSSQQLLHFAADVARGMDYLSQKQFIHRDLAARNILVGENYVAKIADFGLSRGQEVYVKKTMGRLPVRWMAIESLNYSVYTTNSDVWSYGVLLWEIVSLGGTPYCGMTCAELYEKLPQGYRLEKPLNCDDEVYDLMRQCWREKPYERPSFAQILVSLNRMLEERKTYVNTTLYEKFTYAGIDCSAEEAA

[21] = biological target: RAF proto-oncogene serine/threonine-protein kinase (Homo sapiens) (UniProt P04049); assay: Inhibition of c-RAF (unknown origin) at 10 uM
[22] = biological target: Vascular endothelial growth factor receptor 2 (Homo sapiens) (UniProt P35968); assay: Inhibition of VEGFR2 (unknown origin) at 10 uM
[23] = biological target: Focal adhesion kinase 1 (Homo sapiens) (UniProt Q05397); assay: Inhibition of PTK2 (unknown origin) at 10 uM
[24] = biological target: Serine/threonine-protein kinase PLK1 (Homo sapiens) (UniProt P53350); assay: Inhibition of PLK1 (unknown origin) at 10 uM
Chain of Serine/threonine-protein kinase PLK1 (Homo sapiens) (P53350 whole entry): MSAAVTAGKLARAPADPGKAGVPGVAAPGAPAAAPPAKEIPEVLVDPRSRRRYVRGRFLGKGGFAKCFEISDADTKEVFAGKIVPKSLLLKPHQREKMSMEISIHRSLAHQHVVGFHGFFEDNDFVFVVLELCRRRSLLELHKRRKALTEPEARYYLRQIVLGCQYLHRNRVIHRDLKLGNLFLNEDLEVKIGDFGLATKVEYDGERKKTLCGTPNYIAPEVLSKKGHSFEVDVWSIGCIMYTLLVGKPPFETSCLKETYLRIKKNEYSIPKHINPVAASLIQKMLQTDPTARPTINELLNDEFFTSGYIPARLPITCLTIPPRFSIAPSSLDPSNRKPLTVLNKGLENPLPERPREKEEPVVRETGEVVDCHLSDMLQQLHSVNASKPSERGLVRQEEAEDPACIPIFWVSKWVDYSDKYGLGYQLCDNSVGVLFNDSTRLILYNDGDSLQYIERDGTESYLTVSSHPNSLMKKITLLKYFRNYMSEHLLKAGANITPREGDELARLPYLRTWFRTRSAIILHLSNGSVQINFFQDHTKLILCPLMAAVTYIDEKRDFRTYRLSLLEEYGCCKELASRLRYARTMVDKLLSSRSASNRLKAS

Chain of RAF proto-oncogene serine/threonine-protein kinase (Homo sapiens) (P04049 whole entry): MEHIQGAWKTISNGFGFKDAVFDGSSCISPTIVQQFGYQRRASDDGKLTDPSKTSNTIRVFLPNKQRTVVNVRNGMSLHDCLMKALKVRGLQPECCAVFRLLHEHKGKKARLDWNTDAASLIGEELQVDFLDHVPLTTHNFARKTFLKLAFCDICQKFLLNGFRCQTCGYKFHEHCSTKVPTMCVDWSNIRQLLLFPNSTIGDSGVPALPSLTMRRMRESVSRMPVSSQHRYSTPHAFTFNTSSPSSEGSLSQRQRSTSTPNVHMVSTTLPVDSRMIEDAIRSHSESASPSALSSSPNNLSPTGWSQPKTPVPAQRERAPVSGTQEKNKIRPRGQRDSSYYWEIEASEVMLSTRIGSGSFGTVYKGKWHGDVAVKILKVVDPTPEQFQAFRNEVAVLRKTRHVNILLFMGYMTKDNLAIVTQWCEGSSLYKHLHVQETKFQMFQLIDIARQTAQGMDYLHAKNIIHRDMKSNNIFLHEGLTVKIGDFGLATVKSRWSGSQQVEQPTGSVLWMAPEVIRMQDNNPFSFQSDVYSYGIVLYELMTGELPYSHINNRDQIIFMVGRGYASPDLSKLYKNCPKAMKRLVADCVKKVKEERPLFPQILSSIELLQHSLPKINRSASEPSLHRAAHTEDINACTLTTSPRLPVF

IC50 [1] [µM]	Compound	IC50 [2] [µM]	IC50 [3] [µM]	IC50 [4] [µM]	further results
0.0187	Cc1cc(NC(=O)Nc2ccc(Oc3ccnc4cc5c(cc34)C(C)(C)C(=O)N5)c(Cl)c2)no1	5.86	8.46	5.76	–
0.0147	CC1(C)C(=O)Nc2cc3nccc(Oc4ccc(NC(=O)Nc5ccc(F)c(C(F)(F)F)c5)cc4)c3cc21	4.23	9.56	3.2	–
0.0281	Cc1cccc(C)c1NC(=O)Nc1ccc(Oc2ccnc3cc4c(cc23)C(C)(C)C(=O)N4)c(Cl)c1	4.39	11.2	3.85	–
0.0285	CNC(=O)c1cc(Oc2ccc(NC(=O)Nc3ccc(Cl)c(C(F)(F)F)c3)cc2)ccn1 [SORAFENIB]	6.78	12.7	5.23	–
0.0087	CC1(C)C(=O)Nc2cc3nccc(Oc4ccc(NC(=O)Nc5ccc(F)c(C(F)(F)F)c5)cc4Cl)c3cc21	1.1	6.36	0.916	inhibition [5]: 20.2%; inhibition [6]: 1.3%; inhibition [7]: 15.3%; inhibition [8]: 0.2%; inhibition [9]: 46.9%; inhibition [10]: 18.7%; inhibition [11]: 1.5%; inhibition [12]: 15%; inhibition [13]: 7.8%; inhibition [14]: 4.7%; inhibition [15]: 16.5%; inhibition [16]: 0.3%; inhibition [17]: 1.4%; inhibition [18]: 26.2%; inhibition [19]: 0.6%; inhibition [20]: 22.3%; inhibition [21]: 94.6%; inhibition [22]: 34.1%; inhibition [23]: 3.6%; inhibition [24]: 4.9%
0.0373	CC1(C)C(=O)Nc2cc3nccc(Oc4ccc(NC(=O)Nc5cccc(F)c5)cc4)c3cc21	10.6	12	5.46	–
0.0159	CC1(C)C(=O)Nc2cc3nccc(Oc4ccc(NC(=O)Nc5ccc(F)c(C(F)(F)F)c5)cc4F)c3cc21	2.85	8.09	2.16	–
0.0585	Cc1cc(NC(=O)Nc2ccc(Oc3ccnc4cc5c(cc34)C(C)(C)C(=O)N5)cc2)no1	10.1	31.7	6.47	–
0.0521	Cc1cccc(C)c1NC(=O)Nc1ccc(Oc2ccnc3cc4c(cc23)C(C)(C)C(=O)N4)cc1	10.3	20.3	10.5	–
0.0221	CC1(C)C(=O)Nc2cc3nccc(Oc4ccc(NC(=O)Nc5cccc(F)c5)cc4Cl)c3cc21	6.49	7.35	4.38	–
0.0272	Cc1cc(NC(=O)Nc2ccc(Oc3ccnc4cc5c(cc34)C(C)(C)C(=O)N5)c(F)c2)no1	4.18	12	5.03	–
0.0252	CC1(C)C(=O)Nc2cc3nccc(Oc4ccc(NC(=O)Nc5cccc(F)c5)cc4F)c3cc21	5.64	15.5	7.71	–
0.0303	Cc1cccc(C)c1NC(=O)Nc1ccc(Oc2ccnc3cc4c(cc23)C(C)(C)C(=O)N4)c(F)c1	3.75	10.3	4.07	–
